From publication PMC9343874, “Comparative Pharmacokinetics of Cinobufacini Capsule and Injection by UPLC-MS/MS” (Frontiers in Pharmacology, 2022)
Like-named read-outs stand apart in the source and are kept apart here.

Experiments:
[1] = Pharmacokinetic study in rats after oral administration of cinobufacini capsule (UPLC-MS/MS of plasma); assay type: in vivo, rat; settings: for AUC(0-inf) / AUC(0-t) / Cmax / Tmax / CL/F / MRT last / MRT inf / half-life / Vd/F: male, Sprague-Dawley, in vivo, rat plasma, mean ± SD, n = 6; for CL/F: read-out: CLz/F (converted); for MRT last: read-out: MRT0-t; for MRT inf: read-out: MRT0-∞; for half-life: read-out: T1/2z (converted); for Vd/F: read-out: Vz/F
Summary of the method: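 Male SD rats (200–220 g), fasted 12 h, six per group; cinobufacini capsule given orally at three doses or injection intravenously. Retro-orbital plasma sampled 0.05–10 h, extracted with ethyl acetate plus internal standard, quantified by UPLC-MS/MS (ESI+, MRM); parameters calculated by non-compartmental-style software as mean ± SD.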

[2] = Stability of analytes in rat plasma QC samples under storage conditions; assay type: physicochemical; settings: n = 6; for Stability during 24 h at 4°C, RE: post-treatment storage in autosampler; for −80°C for 30 days, RE / Three freeze–thaw cycles, RE: rat plasma; for −80°C for 30 days, RE: long-term; for Three freeze–thaw cycles, RE: −80°C to room temperature
Summary of the method: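 QC samples at low, medium and high levels (n=6) were tested after 24 h in the autosampler at 4 °C, after three freeze–thaw cycles from −80 °C to room temperature, and after 30 days at −80 °C. Concentrations were read from daily calibration curves. Stability was accepted when RE and RSD were within ±15% of nominal.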

[3] = Pharmacokinetic study in rats after intravenous administration of cinobufacini injection (UPLC-MS/MS of plasma); assay type: in vivo, rat; settings: for concentrations in most rat plasma samples relative to LLOQ: after intravenous administration of cinobufacini injection, pharmacokinetic parameters could not be calculated; for detection in rat plasma: cinobufacini injection group, intravenous
Description: Male Sprague–Dawley rats (weighing 200–220 g) of SPF grade were offered by Sippr/BK laboratory Animal, Corp., Ltd. (Shanghai, China) and fed in the Laboratory Animal Center of the Shanghai University of Traditional Chinese Medicine. All the rats were kept under environmentally controlled conditions with constant temperature (22–24°C) and humidity (60–65%). The animal experiment program in the present research was approved by the Animal Committee of the Shanghai University of Traditional Chinese Medicine (PZSHUTCM210618012).
An Agilent 1290 liquid chromatographic system includes a G4220A quaternary pump, a G1326C column incubator, a G4226A automatic sampler, and a G1330B degasser. The column temperature was set to 35°C. A measure of 5 µL of samples were separated in an Agilent SB-C18 column (2.1 mm ×50 mm, 1.8 μm) and eluted at 0.3 ml/min, followed by gradient elution with water (0.1% V/V formic acid) (A) and acetonitrile (B) (0–1 min, 20%–20% B; 1–3.5 min, 20%–80% B; 4–4.1 min, 80%-20% B; 4.1–6 min, 20% B). The total run time was 6 minutes.
An Agilent 1290 Infinity series UPLC system was combined with an Agilent 6460 series triple quadrupole mass spectrometer (Agilent Technologies, Santa Clara, CA, United States) to quantify all 13 analytes in an ESI-positive ionization mode. Quantitative analysis was performed in an MRM mode. The mass spectrum conditions were as follows: capillary voltage, 4000V; drying gas (N2), gas flow rate: 10 L/min; sprayer, 30 psi; gas temperature 350°C; The delta EMV (+) 200 V; collision gas (N2); dwell time, 25 ms. Agilent’s MassHunter Workstation software was used for data collection, peak area calculation, and quantitative analysis.
A measure of 50 µL of the plasma sample was mixed with 10 µL of the internal standard solution (345 ng/ml) in a 1.5-ml centrifuge tube and vortexed for 5 min. The samples were extracted by 500 µL of ethyl acetate for 5 min and centrifuged at 4°C for 10 min (18000 rpm). All the supernatants were collected into another 1.5-ml centrifuge tube, dried under a gentle stream of nitrogen at 37°C, and then added with 50 µL of 80% methanol for resolution. The resolution samples were centrifuged at 4°C for 10 min (18000 rpm), and 5 µL supernatant was extracted and injected for analysis.
Twenty-four male Sprague–Dawley rats (weigh 200–220 g) were divided into four groups with six rats in each group randomly, including three capsule groups at three different doses and one injection group. In the instructions for cinobufacini capsule and injection, the clinical dosage for adults is 2 g per 70 kg orally and 20 ml per 70 kg intravenously, converting to rat doses of 180 mg/kg and 1.8 ml/kg, respectively.
In the pre-experiments, we compared cinobufacini capsule of 180 mg/kg (one-time clinical dose) and 900 mg/kg (five times of clinical dose) and Cinobufacini injection of 1.8 ml/kg, but concentrations of some compounds in plasma were too low and difficult to be quantified. […] The experimental rats were led to fast the night and were free to get access to water for 12 h before the pharmacokinetic study. After administration, blood samples (approximately 150 μL) of rats were collected via retro-orbital sinus into heparinized centrifuge tubes at 0.05, 0.083, 0.25, 0.5, 0.75, 1, 2, 4, 6, 8, and 10 h. After centrifugation at 5,000 rpm for 10 min, the plasma was transferred to 1.5-ml polypropylene tubes and stored at −80°C until UPLC-MS/MS analysis.
GraphPad Prism software (version 8.0.2) was used to draw the mean plasma concentration–time curves of all analytes. The pharmacokinetic parameters were calculated by DAS 3.2.8 software. Meanwhile, the pharmacokinetic data on rats were presented as mean ± standard deviation (SD). Differences of pharmacokinetic parameters between groups were analyzed by the t-test using SPSS software (version 26.0). Differences were considered significant statistically when the p-values were <0.05 and very significant statistically when the p-values were <0.01.

[4] = oral cinobufacini capsule 0.9 g/kg (low)
[5] = oral cinobufacini capsule 1.8 g/kg (medium)
[6] = oral cinobufacini capsule 3.6 g/kg (high)
[7] = high QC level (249.58–250.28 ng/ml)
[8] = medium QC level (49.92–50.06 ng/ml)

Structure (SMILES) | AUC(0-inf) [1, 4] [ng·h/mL] | AUC(0-t) [1, 4] [ng·h/mL] | Cmax [1, 4] [ng/mL] | Tmax [1, 4] [h] | CL/F [1, 4] [mL/min/kg] | MRT last [1, 4] [h] | MRT inf [1, 4] [h] | half-life [1, 4] [h] | Vd/F [1, 4] [L/kg] | AUC(0-inf) [1, 5] [ng·h/mL] | AUC(0-t) [1, 5] [ng·h/mL] | Cmax [1, 5] [ng/mL] | Tmax [1, 5] [h] | CL/F [1, 5] [mL/min/kg] | MRT last [1, 5] [h] | MRT inf [1, 5] [h] | half-life [1, 5] [h] | Vd/F [1, 5] [L/kg] | AUC(0-inf) [1, 6] [ng·h/mL] | AUC(0-t) [1, 6] [ng·h/mL] | further results
C[C@]12CC[C@H](O)C[C@H]1CC[C@@H]1[C@@H]2CC[C@]2(C)[C@@H](c3ccc(=O)oc3)CC[C@]12O [BF, bufalin] | 143 ± 79.4 | 139 ± 71.9 | 74.7 ± 30.7 | 0.25 | 26.2 | 2.04 ± 0.62 | 2.19 ± 0.9 | 1.09 ± 0.91 | 1.81 ± 0.56 | 317 ± 134 | 310 ± 131 | 189 ± 43.2 | 0.43 ± 0.12 | 21.5 | 1.45 ± 0.24 | 1.59 ± 0.49 | 1.2 ± 0.62 | 2.15 ± 1.21 | 461 ± 90.4 | 457 ± 91.2 | Cmax [1, 6]: 322 ± 55.5 ng/mL; Tmax [1, 6]: 0.46 ± 0.17 h; CL/F [1, 6]: 27.3 mL/min/kg; MRT last [1, 6]: 1.39 ± 0.43 h; MRT inf [1, 6]: 1.49 ± 0.55 h; half-life [1, 6]: 1.27 ± 0.72 h; Vd/F [1, 6]: 3.02 ± 2.01 L/kg; time to reach maximum plasma concentration (Cmax) ([1]; rats, after gavage administration of cinobufacini capsule): ≤ 60 min; Stability during 24 h at 4°C, RE [2, 7]: −8.5%; Stability during 24 h at 4°C, RE ([2]; low QC level (4.99–5.00 ng/ml)): 3.3%; Stability during 24 h at 4°C, RE [2, 8]: −8.6%; −80°C for 30 days, RE [2, 7]: 1.4%; −80°C for 30 days, RE ([2]; low QC level (4.99–5.00 ng/ml)): 8.7%; −80°C for 30 days, RE [2, 8]: −12.6%; Three freeze–thaw cycles, RE [2, 7]: 0.8%; Three freeze–thaw cycles, RE ([2]; low QC level (4.99–5.00 ng/ml)): −7.7%; Three freeze–thaw cycles, RE [2, 8]: −10.1%; concentrations in most rat plasma samples relative to LLOQ [3]: far below the LLOQs; detection in rat plasma [3]: could be detected
C[C@]12CC[C@H](O)C[C@H]1CC[C@@H]1[C@@H]2C(=O)[C@@H](O)[C@]2(C)[C@@H](c3ccc(=O)oc3)CC[C@]12O [PBG, pseudobufarenogin] | 13.8 ± 5.4 | 13.3 ± 4.42 | 9.3 ± 3.04 | 0.25 | 33.5 | 2.4 ± 0.63 | 2.76 ± 1 | 1.52 ± 0.98 | 7.15 ± 2.16 | 28.6 ± 6.25 | 28.4 ± 6.26 | 24.5 ± 7.32 | 0.4 ± 0.22 | 30.8 | 1.49 ± 0.08 | 1.54 ± 0.11 | 1.03 ± 0.61 | 2.65 ± 1.51 | 47.7 ± 9.78 | 47.3 ± 9.4 | Cmax [1, 6]: 42.8 ± 10.2 ng/mL; Tmax [1, 6]: 0.32 ± 0.12 h; CL/F [1, 6]: 36.7 mL/min/kg; MRT last [1, 6]: 1.47 ± 0.39 h; MRT inf [1, 6]: 1.57 ± 0.39 h; half-life [1, 6]: 1.96 ± 0.67 h; Vd/F [1, 6]: 5.65 ± 1.61 L/kg; Stability during 24 h at 4°C, RE [2, 7]: 10.2%; Stability during 24 h at 4°C, RE ([2]; low QC level (4.99–5.00 ng/ml)): 6.6%; Stability during 24 h at 4°C, RE [2, 8]: 12.0%; −80°C for 30 days, RE [2, 7]: 4.7%; −80°C for 30 days, RE ([2]; low QC level (4.99–5.00 ng/ml)): 8.3%; −80°C for 30 days, RE [2, 8]: 7.5%; Three freeze–thaw cycles, RE [2, 7]: 7.7%; Three freeze–thaw cycles, RE ([2]; low QC level (4.99–5.00 ng/ml)): 4.4%; Three freeze–thaw cycles, RE [2, 8]: 13.3%; concentrations in most rat plasma samples relative to LLOQ [3]: far below the LLOQs; detection in rat plasma [3]: could be detected
